# Experiments:
# Format in all cases: cell-based
# HT29 = experiment: Solid tumour and haematological malignancy assay (CellTiterGlo); settings: Homo sapiens, HT-29, 72 h; for IC50: read-out: IC50 (absolute IC50); for Emax: read-out: MI %
# Protocol: (§1) In vitro viability assay were performed to assess the effects of compounds on cell viability in selected cell lines over 72 hr using the CellTiterGlo (CTG, Promega-G7573) assay. […] Cell viability assay using CellTiterGlo in 96-well plate were performed. Compound treatment 72 hrs, standard growth conditions, duplicates. Compounds were dissolved to 40 mM with thawed 100%. […] After compounds were dissolved in media, media containing compounds were warmed to 37° C. in incubator and then compounds in media were added to cell plates ([…]) in duplicates. […] All compound solubilities were checked and recorded again, then the plates were transferred to CO2 tissue culture incubator immediately and incubated for 3 days. DMSO final concentration is 0.5%.
# MCF7 = experiment: as above; settings: Homo sapiens, MCF7, 72 h; for IC50: read-out: IC50 (absolute IC50); for Emax: read-out: MI %
# Protocol: as §1
# MiaPaCa-2 = experiment: as above; settings: Homo sapiens, MIA PaCa-2, 72 h; for IC50: read-out: IC50 (absolute IC50); for Emax: read-out: MI %
# Protocol: as §1
# HEL92.1.7 = experiment: as above; settings: Homo sapiens, HEL 92.1.7, 72 h; for IC50: read-out: IC50 (absolute IC50); for Emax: read-out: MI %
# Protocol: as §1
# KG-1 = experiment: as above; settings: Homo sapiens, KG-1, 72 h; for IC50: read-out: IC50 (absolute IC50); for Emax: read-out: MI %
# Protocol: as §1
# K562 = experiment: as above; settings: Homo sapiens, K562, 72 h; for IC50: read-out: IC50 (absolute IC50); for Emax: read-out: MI %
# Protocol: as §1
# CCRFCEM = experiment: as above; settings: Homo sapiens, CCRF-CEM, 72 h; for IC50: read-out: IC50 (absolute IC50); for Emax: read-out: MI %
# Protocol: as §1
# HepG2 = experiment: as above; settings: Homo sapiens, HepG2, 72 h; for IC50: read-out: IC50 (absolute IC50); for Emax: read-out: MI %
# Protocol: as §1
# HL-60 = experiment: as above; settings: Homo sapiens, HL-60, 72 h; for IC50: read-out: IC50 (absolute IC50); for Emax: read-out: MI %
# Protocol: as §1
# [1] = test system: leukaemic stem cell (LSC) compartment within the KG1a cell line; experiment: Immunophenotypic identification of the leukaemic stem cell compartment; settings: 72 h; for LSC targeting compared with the parent nucleoside: for compound A at 1 mM and above
# Protocol: KG1a cells were cultured for 72 h in the presence of a wide range of concentrations of each compound assayed. Cells were then harvested and labelled with a cocktail of anti-lineage antibodies (PE-cy7), anti-CD34 (FITC), anti-CD38 (PE) and anti-CD123 (PERCP cy5). The sub-population expressing a LSC phenotype were subsequently identified and were expressed as a percentage of all viable cells left in the culture. The percentages of stem cells remaining were then plotted on a dose-response graph and the effects of the compounds were compared with each other, and with the parent nucleoside.
# The data obtained in these experiments were evaluated using one way ANOVA. All data was confirmed as Gaussian or a Gaussian approximation using the omnibus K2 test. LD50 values were calculated from the non-linear regression and line of best-fit analysis of the sigmoidal dose-response curves. All statistical analyses were performed using Graphpad Prism 6.0 software (Graphpad Software Inc., San Diego, Calif.).
# KG1a cells = experiment: Annexin V/propidium iodide in vitro apoptosis assay (LD50); settings: 72 h
# Protocol: The KG1a cell line was maintained in RPMI medium (Invitrogen, Paisley, UK) supplemented with 100 units/ml penicillin, 100 μg/ml streptomycin and 20% foetal calf serum. Cells were subsequently aliquoted (10^5 cells/100 μl) into 96-well plates and were incubated at 37° C. in a humidified 5% carbon dioxide atmosphere for 72 h in the presence of nucleoside analogues and their respective proTides at concentrations that were experimentally determined for each series of compounds. In addition, control cultures were carried out to which no drug was added. Cells were subsequently harvested by centrifugation and were analyzed by flow cytometry using the Annexin V assay.
# Cultured cells were harvested by centrifugation and then resuspended in 195 μl of calcium-rich buffer. Subsequently, 5 μl of Annexin V (Caltag Medsystems, Botolph Claydon, UK) was added to the cell suspension and cells were incubated in the dark for 10 mins prior to washing. Cells were finally resuspended in 190 μl of calcium-rich buffer together with 10 μl of propidium iodide. Apoptosis was assessed by dual-colour immunofluorescent flow cytometry as described previously.
# The data obtained in these experiments were evaluated using one way ANOVA. […] LD50 values were calculated from the non-linear regression and line of best-fit analysis of the sigmoidal dose-response curves. […]
SMILES,IC50 (HT29) [µM],Emax (HT29) [%],IC50 (MCF7) [µM],Emax (MCF7) [%],IC50 (MiaPaCa-2) [µM],Emax (MiaPaCa-2) [%],IC50 (HEL92.1.7) [µM],Emax (HEL92.1.7) [%],IC50 (KG-1) [µM],Emax (KG-1) [%],IC50 (K562) [µM],Emax (K562) [%],IC50 (CCRFCEM) [µM],Emax (CCRFCEM) [%],IC50 (HepG2) [µM],Emax (HepG2) [%],IC50 (HL-60) [µM],Emax (HL-60) [%],LSC targeting compared with the parent nucleoside [1],also measured
"C[C@H](NP(=O)(OC[C@@H]1C[C@H](O)[C@H](n2cnc3c(N)nc(F)nc32)O1)Oc1cccc2ccccc12)C(=O)OCc1ccccc1 (stereo partly drawn) [Compound O, 2-Fluoro-3′-deoxyadenosine-5′-O-[1-naphthyl(benzyloxy-L-alaninyl)] phosphate]",15 to 100,84,0.1 to 5,95,0.1 to 5,100,0.1 to 5,100,5 to 15,99,0.1 to 5,99,0.1 to 5,99,5 to 15,83,0.1 to 5,101,not significantly different to 2-F-Cordycepin,reduction of LSCs as a proportion of the cancer cells in culture (ability to target LSCs) ([1]; Lin−/CD34+/CD38−/CD123+): able to bring about a reduction in the proportion of LSCs
"CCCCCOC(=O)[C@H](CC(C)C)NP(=O)(OC[C@@H]1C[C@H](O)[C@H](n2cnc3c(N)nc(F)nc32)O1)Oc1cccc2ccccc12 (stereo partly drawn) [Compound Q, 2-Fluoro-3′-deoxyadenosine-5′-O-[1-naphthyl(1-pentyloxy-L-leucinyl)] phosphate]",15 to 100,88,0.1 to 5,99,0.1 to 5,100,0.1 to 5,99,5 to 15,103,0.1 to 5,100,0.1 to 5,101,0.1 to 5,94,0.1 to 5,99,significantly improved when compared with the parental nucleoside,
"Nc1nc(F)nc2c1ncn2[C@@H]1O[C@H](CO)C[C@H]1O [2-F-Cordycepin, 3′deoxy-2-fluoroadenosine, reference compound]",15 to 100,73,15 to 100,97,15 to 100,100,5 to 15,99,5 to 15,99,15 to 100,97,15 to 100,101,15 to 100,82,5 to 15,96,,"in vitro drug sensitivity / potency (LD50 comparison, FIG. 1) (KG1a cells): significantly more potent than Cordycepin"
"C[C@H](NP(=O)(OC[C@@H]1C[C@@H](O)[C@H](n2cnc3c(N)nc(F)nc32)O1)Oc1ccccc1)C(=O)OCc1ccccc1 (mixture of isomers) [P, (2S)-benzyl 2-(((((2S,4R,5R)-5-(6-amino-2-fluoro-9H-purin-9-yl)-4-hydroxytetrahydrofuran-2-yl)methoxy)(phenoxy)phosphoryl)amino)propanoate]",5 to 15,87,0.1 to 5,95,0.1 to 5,98,0.1 to 5,99,0.1 to 5,97,0.1 to 5,97,0.1 to 5,99,5 to 15,74,0.1 to 5,100,significantly improved when compared with the parental nucleoside,
"CCCCCCOC(=O)[C@H](C)NP(=O)(OC[C@@H]1C[C@@H](O)[C@H](n2cnc3c(N)nc(F)nc32)O1)Oc1ccccc1 (stereo partly drawn) [R, (2S)-hexyl 2-(((((2S,4R,5R)-5-(6-amino-2-fluoro-9H-purin-9-yl)-4-hydroxytetrahydrofuran-2-yl)methoxy)(phenoxy)phosphoryl)amino)propanoate]",15 to 100,92,0.1 to 5,87,5 to 15,98,0.1 to 5,99,0.1 to 5,96,5 to 15,96,0.1 to 5,100,5 to 15,82,0.1 to 5,100,significantly improved when compared with the parental nucleoside,
